Assay results: US9206200B2, “N-linked lactam M1 receptor positive allosteric mogulators” (Merck Sharp & Dohme Corp., priority 2011, dated 2015)
Like-named read-outs stand apart in the source and are kept apart here.

Biological target: T1, acetylcholine muscarinic M1 receptor (Homo sapiens, UniProt P11229)
T1 construct: expressed in transfected cells; host or cells: CHOnfat cells (CHO cells with an NFAT reporter) expressing hM1, kept under Geneticin selection
T1 sequence (P11229 1-460): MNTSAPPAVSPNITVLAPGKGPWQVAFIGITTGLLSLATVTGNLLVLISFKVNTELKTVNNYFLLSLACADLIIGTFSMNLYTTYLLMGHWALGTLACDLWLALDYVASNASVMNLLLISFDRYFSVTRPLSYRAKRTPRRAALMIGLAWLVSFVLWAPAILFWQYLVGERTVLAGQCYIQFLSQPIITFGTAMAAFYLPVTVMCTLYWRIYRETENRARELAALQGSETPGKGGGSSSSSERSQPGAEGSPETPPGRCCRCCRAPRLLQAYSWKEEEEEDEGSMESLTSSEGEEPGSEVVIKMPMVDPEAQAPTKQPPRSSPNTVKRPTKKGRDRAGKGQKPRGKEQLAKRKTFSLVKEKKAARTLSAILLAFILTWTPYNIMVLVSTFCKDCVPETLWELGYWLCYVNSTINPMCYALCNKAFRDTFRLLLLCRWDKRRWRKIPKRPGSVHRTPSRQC
Assay: muscarinic FLIPR assay: intracellular calcium in CHOnfat/hM1 cells, potentiation of EC20 acetylcholine
Format: cell-based
Conditions: EC20 acetylcholine (3 nM final)
In short: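 CHOnfat cells stably expressing human M1, Fluo-4AM-loaded, in HBSS with 20 mM HEPES, 2.5 mM probenecid, 1% BSA. Compounds preincubated 4 min (printed "4 mM") before an EC20 acetylcholine challenge (3 nM final). FLIPR intracellular Ca²⁺ signal compared with 3 nM acetylcholine alone to detect potentiation.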

[1] = Table 1, CHOnfat/hM1 cells, FLIPR, read-out: M1 Pot.
[2] = Table 2, CHOnfat/hM1 cells, FLIPR, read-out: M1 Pot.

Row | EC50 [1] [µM] | EC50 [2] [µM] | Compound | also measured
1 | – | 0.156 | N#CC1(Cc2ccncc2)CCN(Cc2cc3c(c4ncccc24)CN(C2CCCCC2O)C3=O)CC1 (stereo not drawn) [Example 135, 1-{[8-(2-hydroxycyclohexyl)-7-oxo-8,9-dihydro-7H-pyrrolo[3,4-h]quinolin-5-yl]methyl}-4-(pyridin-4-ylmethyl)piperidine-4-carbonitrile] | –
2 | – | 0.088 | O=C1c2cc(CN3CCC(F)CC3)c3cccnc3c2CN1C1CCCCC1O (stereo not drawn) [Example 91, 5-[(4-fluoropiperidin-1-yl)methyl]-8-(2-hydroxycyclohexyl)-8,9-dihydro-7H-pyrrolo[3,4-h]quinolin-7-one] | –
3 | – | 0.843 | C#CC1(F)CCN(Cc2cc3c(c4ncccc24)CN(c2cccc(O)c2)C3=O)CC1 [Example 128, 5-[(4-ethynyl-4-fluoropiperidin-1-yl)methyl]-8-(3-hydroxyphenyl)-8,9-dihydro-7H-pyrrolo[3,4-h]quinolin-7-one] | –
4 | – | 0.11 | CC1c2c(cc(CN3CCC(F)(F)CC3)c3cccnc23)C(=O)N1[C@@H]1COCC[C@@H]1O (stereo partly drawn) [Example 106, 1,5-anhydro-2,4-dideoxy-4-{5-[(4,4-difluoropiperidin-1-yl)methyl]-9-methyl-7-oxo-7,9-dihydro-8H-pyrrolo[3,4-h]quinolin-8-yl}-D-erythro-pentitol] | –
5 | 1.9 | – | O=C1c2cc(CN3CCN(CC(F)(F)F)CC3)c3ccccc3c2CN1C1CCCCC1O (stereo not drawn) [Example 34, 2-(2-hydroxycyclohexyl)-5-{[4-(2,2,2-trifluoroethyl)piperazin-1-yl]methyl}-1,2-dihydro-3H-benzo[e]isoindol-3-one] | –
6 | 0.36 | – | O=C1c2cc(CN3CCC(C(F)(F)F)CC3)c3ccccc3c2CN1C1CCCCC1O (stereo not drawn) [Example 27, 2-(2-hydroxycyclohexyl)-5-{[4-(trifluoromethyl)piperidin-1-yl]methyl}-1,2-dihydro-3H-benzo[e]isoindol-3-one] | –
7 | 5.3 | – | O=C1c2cc(CN3CCC(C4CC4)CC3)c3ccccc3c2CN1C1CCCCC1O (stereo not drawn) [Example 39, 5-[(4-cyclopropylpiperidin-1-yl)methyl]-2-(2-hydroxycyclohexyl)-1,2-dihydro-3H-benzo[e]isoindol-3-one] | –
8 | 0.37 | – | CC1CN(Cc2cc3c(c4ccccc24)CN([C@H]2CCCC[C@@H]2O)C3=O)CCN1c1ccccc1 (stereo partly drawn) [Example 78, 2-[(1S,2S)-2-hydroxycyclohexyl]-5-[(3-methyl-4-phenylpiperazin-1-yl)methyl]-1,2-dihydro-3H-benzo[e]isoindol-3-one] | –
9 | – | 0.038 | N#CC1(F)CCN(Cc2cc3c(c4ncccc24)CN([C@H]2CCCC[C@@H]2O)C3=O)CC1 [Example 117, 4-fluoro-1-({8-[(1S,2S)-2-hydroxycyclohexyl]-7-oxo-8,9-dihydro-7H-pyrrolo[3,4-h]quinolin-5-yl}methyl)piperidine-4-carbonitrile] | –
10 | – | 0.011 | O=C1c2cc(CN3CCC(F)(c4ccccn4)CC3)c3cccnc3c2CN1C1CCCCC1O (stereo not drawn) [Example 146, 5-[(4-fluoro-4-pyridin-2-ylpiperidin-1-yl)methyl]-8-(2-hydroxycyclohexyl)-8,9-dihydro-7H-pyrrolo[3,4-h]quinolin-7-one] | –
11 | 3.8 | – | O=C1c2cc(CN3CCCC3)c3ccccc3c2CN1C1CCCCC1O (stereo not drawn) [Example 23, 2-(2-Hydroxycyclohexyl)-5-(pyrrolidin-1-ylmethyl)-1,2-dihydro-3H-benzo[e]isoindol-3-one] | –
12 | – | 0.07 | CC1c2c(cc(CN3CCC(F)(c4ccccn4)CC3)c3cccnc23)C(=O)N1[C@@H]1CCCC[C@@H]1O (stereo partly drawn) [Example 147, 5-[(4-fluoro-4-pyridin-2-ylpiperidin-1-yl)methyl]-8-[(1R,2S)-2-hydroxycyclohexyl]-9-methyl-8,9-dihydro-7H-pyrrolo[3,4-h]quinolin-7-one] | –
13 | – | 0.044 | N#CC1(F)CCN(Cc2cc3c(c4ncccc24)CN(c2cccc(O)c2)C3=O)CC1 [Example 127, 4-fluoro-1-{[8-(3-hydroxyphenyl)-7-oxo-8,9-dihydro-7H-pyrrolo[3,4-h]quinolin-5-yl]methyl}piperidine-4-carbonitrile] | –
14 | – | 0.49 | CC1c2c(cc(CN3CCC(c4ccccc4)CC3)c3cccnc23)C(=O)N1C1CCCCC1O (stereo not drawn) [Example 141, 8-(2-hydroxycyclohexyl)-9-methyl-5-[(4-phenylpiperidin-1-yl)methyl]-8,9-dihydro-7H-pyrrolo[3,4-h]quinolin-7-one] | –
15 | – | 0.129 | O=C1c2cc(CN3CCC(F)(C#Cc4ccc(F)cc4)CC3)c3cccnc3c2CN1C1CCCCC1O (stereo not drawn) [Example 133, 5-({4-fluoro-4-[(4-fluorophenyl)ethynyl]piperidin-1-yl}methyl)-8-(2-hydroxycyclohexyl)-8,9-dihydro-7H-pyrrolo[3,4-h]quinolin-7-one] | –
16 | 0.315 | – | COc1ccc(N2CC3CC2CN3Cc2cc3c(c4ccccc24)CN([C@H]2CCCC[C@@H]2O)C3=O)cc1 (stereo partly drawn) [Example 71] | –
17 | 0.198 | – | CC1c2c(cc(CN3CCN(c4ccccc4)CC3)c3ccccc23)C(=O)N1[C@@H]1CCCC[C@@H]1O (stereo partly drawn) [Example 73, 2-[(1R,2S)-2-hydroxycyclohexyl]-1-methyl-5-[(4-phenylpiperazin-1-yl)methyl]-1,2-dihydro-3H-benzo[e]isoindol-3-one] | –

Further lines, the molecule ahead of its results:

Row | Compound | EC50 [1] [µM] | EC50 [2] [µM] | also measured
18 | N#CC1(c2ccccc2F)CCN(Cc2cc3c(c4ccccc24)CN([C@@H]2CCCC[C@@H]2O)C3=O)CC1 [Example 60, 4-(2-fluorophenyl)-1-({2-[(1R,2S)-2-hydroxycyclohexyl]-3-oxo-2,3-dihydro-1H-benzo[e]isoindol-5-yl}methyl)piperidine-4-carbonitrile] | 0.044 | – | –
19 | N#CC1(c2ccncc2)CCN(Cc2cc3c(c4ccccc24)CN([C@H]2CCCC[C@@H]2O)C3=O)CC1 [Example 58, 1-({2-[(1S,2S)-2-hydroxycyclohexyl]-3-oxo-2,3-dihydro-1H-benzo[e]isoindol-5-yl}methyl)-4-pyridin-4-ylpiperidine-4-carbonitrile] | 0.021 | – | –
20 | CC1CCN(Cc2cc3c(c4ccccc24)CN([C@H]2CCCC[C@@H]2O)C3=O)CC1 [Example 21, 2-[(1S,2S)-2-hydroxycyclohexyl]-5-[(4-methylpiperidin-1-yl)methyl]-1,2-dihydro-3H-benzo[e]isoindol-3-one] | 1.5 | – | –
21 | N#CC1(c2ccccn2)CCN(Cc2cc3c(c4ncccc24)CN([C@H]2CCCC[C@@H]2O)C3=O)CC1 [Example 145, 1-({8-[(1S,2S)-2-hydroxycyclohexyl]-7-oxo-8,9-dihydro-7H-pyrrolo[3,4-h]quinolin-5-yl}methyl)-4-pyridin-2-ylpiperidine-4-carbonitrile] | – | 0.0076 | –
22 | O=C1c2cc(CN3CCC4(CC3)COc3ccccc34)c3ccccc3c2CN1C1CCCCC1O (stereo not drawn) [Example 40, 2-(2-hydroxycyclohexyl)-5-(1′H-spiro[1-benzofuran-3,4′-piperidin]-1′-ylmethyl)-1,2-dihydro-3H-benzo[e]isoindol-3-one] | 0.72 | – | –
23 | N#CC1(c2ccccc2)CCN(Cc2cc3c(c4ccccc24)CN([C@H]2CCCC[C@@H]2O)C3=O)CC1 [Example 56, 1-({2-[(1S,2S)-2-hydroxycyclohexyl]-3-oxo-2,3-dihydro-1H-benzo[e]isoindol-5-yl}methyl)-4-phenylpiperidine-4-carbonitrile] | 0.083 | – | –
24 | N#CC1(c2cccnc2)CCN(Cc2cc3c(c4ccccc24)CN([C@H]2CCCC[C@@H]2O)C3=O)CC1 [Example 57] | 0.022 | – | –
25 | CC1c2c(cc(CN3CCC(C#N)(c4ccccn4)CC3)c3ccccc23)C(=O)N1[C@H]1CCCC[C@@H]1O (single isomer, unassigned) [Example 44] | 0.0096 | – | –
26 | N#CC1(c2ccccn2)CCN(Cc2cc3c(c4ccccc24)CN(C2CCOCC2)C3=O)CC1 [Example 54, 1-{[3-oxo-2-(tetrahydro-2H-pyran-4-yl)-2,3-dihydro-1H-benzo[e]isoindol-5-yl]methyl}-4-pyridin-2-ylpiperidine-4-carbonitrile] | 0.279 | – | –
27 | CC(=O)N1CCN(Cc2cc3c(c4ccccc24)CN(C2CCCCC2O)C3=O)CC1 (stereo not drawn) [Example 14, 5-[(4-acetylpiperazin-1-yl)methyl]-2-(2-hydroxycyclohexyl)-1,2-dihydro-3H-benzo[e]isoindol-3-one] | 2.6 | – | –
28 | N#CC1(F)CCN(Cc2cc3c(c4ccccc24)CN([C@H]2CCCC[C@@H]2O)C3=O)CC1 [Example 19, 4-fluoro-1-({2-[(1S,2S)-2-hydroxycyclohexyl]-3-oxo-2,3-dihydro-1H-benzo[e]isoindol-5-yl}methyl)piperidine-4-carbonitrile] | 0.037 | – | –
29 | N#CC1(c2cnccn2)CCN(Cc2cc3c(c4ccccc24)CN([C@H]2CCCC[C@@H]2O)C3=O)CC1 [Example 50, 1-({2-[(1S,2S)-2-hydroxycyclohexyl]-3-oxo-2,3-dihydro-1H-benzo[e]isoindol-5-yl}methyl)-4-(pyrazin-2-yl)piperidine-4-carbonitrile] | 0.031 | – | –
30 | O=C1c2cc(CN3CCC(F)(c4ccccn4)CC3)c3ccccc3c2CN1[C@H]1CCCC[C@@H]1O [Example 2, 5-{[4-Fluoro-4-(pyridine-2-yl)piperidine-1-yl]methyl}-2-[(1S,2S)-2-hydroxycyclohexyl]-1,2-dihydro-3H-benzo[e]isoindol-3-one] | – | – | EC50 (Table 3, inflection point calculated from the FLIPR values, read-out: IP Value): 0.058 µM
